Here are results for one molecule from patent publication US20230089557A1, “METHODS OF TREATING DLBCL USING BTK INHIBITORS AND COMBINATIONS THEREOF” (BEIGENE SWITZERLAND GMBH, priority 2020, published 2023).

The test system of the test is Non-GCB DLBCL PDX models. Description: Compound 1 efficacy (TGI) in non-GCB DLBCL PDX models by CD79B / CD79B ITAM mutation. It is filed as in vivo, mice. The settings on record: p.o. 7.5 mg/kg BID. From the text: DLBCL patient-derived xenografted (PDX) models were established in immunodeficient NCG (NOD-Prkdcem26Cd52Il2rgem26Cd22/NjuCrl) mice. These models were classified into GCB and non-GCB subgroups based on immunohistochemistry (IHC) staining using Hans algorithm. Non-GCB DLBCL PDX models were classified into CD79B mutant versus CD79B wildtype groups; or CD79B ITAM domain mutant (amino acid 193-210) versus CD79B ITAM domain wildtype groups. For efficacy studies, tumor tissues were inoculated subcutaneously into NCG mice. When tumors reached 100˜200 mm^3, mice were randomized into each group with 7˜10 mice/group based on tumor volume. Compound 1 was formulated with 0.5% methyl cellulose as vehicle and treatment was started on the day of randomized grouping. Compound 1 was administrated p.o., 7.5 mg/(kg body weight), BID. Tumor volumes were measured twice weekly in two dimensions using a caliper, and the volume were expressed in mm^3 using the formula:
V=0.5(a×b^2) where a and b are the long and short diameters of the tumor, respectively.
Tumor growth inhibition (TGI) was calculated using the following formula:
% TGI=100×[1−(treatmentvt−treatmentv0)/(vehiclevt−Vehiclev0)]
Treatmentvt=tumor volume of treatment group at time t.
treatmentv0=tumor volume of treatment group at time of treatment started.
Vehiclevt=tumor volume of vehicle group at time t.
Vehiclev0=tumor volume of vehicle group at time of treatment started.
P value was calculated using two tails t test.

With `C=CC(=O)N1CCC([C@@H]2CCNc3c(C(N)=O)c(-c4ccc(Oc5ccccc5)cc4)nn32)CC1` [Compound 1, (S)-7-(1-acryloylpiperidin-4-yl)-2-(4-phenoxyphenyl)-4,5,6,7-tetra-hydropyrazolo[1,5-a]pyrimidine-3-carboxamide], the “TGI (mean±SD)” value runs as follows: (CD79B ITAM domain mutation non-GCB DLBCL models) 96.00±28.83%; (CD79B mutation non-GCB DLBCL models) 87.5±33.14%; (CD79B wildtype non-GCB DLBCL models) 49.44±42.36%.
